Broadly, the ED50 is the dose at which the effect has come halfway, by size or by number of responders. Usually IC50 stands for the point on the concentration scale where inhibition reaches its midpoint.

The subject of assay [1] is male NMRI mice. Kind of assay: Global ischemia induced by magnesium chloride (gasping time). To be noted: for Effect in % (increase in gasping time): Dose 30 mg/kg ip., magnesium chloride iv. after 30 minutes; for ID50: ip., gasping time, calculated by linear regression. The class given is in vivo. How it is done:
Global ischemia induced by magnesium chloride
The experiments were carried out as described by Berga et al. /Berga, P., Beckett, P.R., Roberts, D.J., Llenas, J., Massingham, R.: Synergistic interactions between piracetam and dihydroergocristine in some animal models of cerebral hypoxia and ischemia, Arzneim.--Forsch., 36, 1314-1320 (1986)/. Groups of 10 male NMRI mice weighing 20 to 25 g were treated ip. with the test substance in […]. After 30 minutes, saturated aqueous magnesium chloride solution was applied iv. (5 ml/kg) resulting in an immediate cardiac arrest. The elapsed time between the iv. injection and the last gasping was measured (gasping time). The means of the treated groups were expressed as percent of control. Statistical analysis was done by ANOVA followed by DUNCAN test. The dose resulting in 50 % descrease in gasping time (ID50) was calculated by linear regression.

Assay [2] concerns male NMRI mice. Put plainly: Maximal electroshock test (MES). To be noted: Mus musculus, 0.5 h, ip., inhibition of maximal electroshock, 30 minutes after treatment. The class given is in vivo. The procedure: Maximal electroshock test (MES)
Male NMRI mice weighing 20 to 30 g were used for the method of Swinyard et al. /Swinyard, E.A., Brown, W.C. and Goodman, L.S.: Comparative assays of antiepileptic drugs in mice and rats, J. Pharmacol., 106, 319 (1952)/. The animals, 10 in each group, were treated ip. either with various doses of the test substance or with vehicle. After 30 minutes, a 50 Hz, 40 mA electroshock was applied for 0.4 s through corneal electrodes. The number of animals that developed tonic extensor convulsion of the hind-limbs was registered, percent inhibition was calculated, and ED50 values were determined by the method of Litchfield and Wilcoxon /Litchfield, J.T., Wilcoxon, F.A.: A simplified method of evaluating dose-effect experiments, J. Pharmacol. Exp. Ther., 96, 99 (1949)/ and summarized in Table III.
On the technique in general: The maximal electroshock test induces tonic seizures with an electrical stimulus.

Assay [3] concerns CAl neurones of rat hippocampus. Kind of assay: PSI (inhibition of population spike) test. The class given is cell-based. To be noted: electric stimulation of Shaffer collateral comissural pathway. How it is done:
PSI (inhibition of population spike) test
The field potentials (population spike) evoked by electric stimulation of the Shaffer collateral comissural pathway were measured in the CAl neurones of rat hippocampus. The population spike can be inhibited by AMPA/kainate antagonists. The non-cumulative IC50 values are shown in Table I. /Tarnawa, I., Molnár, P., Gaál, L., Andrási, F.: Inhibition of hippocampal field potentials by GYKI 52466 in vitro and in vivo, Acta Physiol. Hung., 79(2), 163-9 (1992)/.

Assay [4] concerns male DBA/2j strain mice. Kind of assay: Audiogenic seizure (AS) test. It is filed as in vivo. To be noted: Mus musculus, ip., DBA/2j mice, inhibition of sound induced seizure. The procedure: Audiogenic seizure (AS) test
The experiments were carried out by the slightly modified method of De Sarro et al. /De Sarro, G.B., Croucher, M.J. and Meldrum, B.S.: Anticonvulsant action of DS 103-282, Neuropharm., 23, 525 (1984)/. Groups of 8 male DBA/2j strain mice weighing 7 to 14 g were treated ip. with the test substance in 10 ml/kg volume. 15 minutes later, the animals were placed into a covered glass container (30 cm in diameter) and exposed to a 14 kHz 120 dB tone for 60 s at the most. Seizure response was assessed using the following scale: 0 = normal behaviour, 1 = wild running, 2 = clonus, 3 = tonic flexor seizure, 4 = tonic extensor seizure. The maximum response during the 60 s exposure was recorded for each animal. Lethality was also noted. The ED50 values were determined by the method of Litchfield and Wilcoxon concerning the inhibition of clonic seizures and tonic extensor convulsions.

The test system of assay [5] is isolated retinal preparation of the chicken. Kind of assay: SD (spreading depression) test, evoked by kainate. It is filed as cell-based. To be noted: Gallus gallus, chicken retina. The text has this:
SD (spreading depression) test
The method is based on the phenomenon of spreading depression evoked by kainate in isolated retinal preparation of the chicken. The formation of spreading depression is inhibited (delayed) by AMPA/kainate antagonists. /Sheardown M.J.: The triggering of spreading depression in the chicken retina: a pharmacological study, Brain Res., 607(1-2), 189-194 (1993)/.

For assay [6], the system named is male NMRI mice. Put plainly: Muscle relaxant effect, 60° inclined screen according to Hoppe. It is filed as in vivo. To be noted: for ED50: Mus musculus, determined at the time of maximal effect; for ED50 / Muscle relaxant effect duration: ip.; for ED50 / Muscle relaxant effect duration / muscle relaxant effect in the inclined screen: mice; for Muscle relaxant effect duration: time of last reading when the effect was at least 30 %; for muscle relaxant effect in the inclined screen: 60 mg/kg dose. The procedure: The assay was done according to Hoppe in male NMRI mice weighing 20 to 25 g, with 10 animals in each group /Hoppe, J.O., J . Pharmacol. Exp. Ther., 100, 333 (1950)/. Following the ip. treatment of animals, the number of mice showing muscle weakness were recorded at every 10 minutes in the first hour and at half hour intervals afterwards. The animals falling off the 60° inclined screen within 30 seconds were considered positive. ED50 values of the given compounds were determined at each time. The duration of effect was defined as the time of last reading when the effect was at least 30 %.

Where [7] appears, read: clonic seizures, read-out: AS ED50 clonic convulsion.
Where [8] appears, read: tonic extensor convulsions, read-out: AS ED50 tonic convulsion.

The structures appear in SMILES notation. Where two headings read alike, the source gives them in different places.

On to `CC1Cc2cc3c(cc2C(c2ccc(N)cc2)=NN1C(=O)NC1CC1)OCO3` (racemic) [Example 2, (±)-5-(4-Aminophenyl)-7-(N-cyclopropylcarbamoyl)-7,8-dihydro-8-methyl-9H-1,3--dioxolo/4,5-h//2,3/benzodiazepine], for which the “Effect in % (increase in gasping time)” value in assay [1] is recorded as 61%. Also, the ID50 in assay [1] is recorded as 13 mg/kg. Besides, the median effective dose (ED50) turned out to be 4.6 mg/kg in assay [2], 2.5 mg/kg in assay [4] (setting [7]), 1.6 mg/kg in assay [4] (setting [8]) and 21.1 mg/kg in assay [6]. Also, in assay [3], the “Percent inhibition of population spike (10 micron)” value (shortened to “Percent inhibition”) amounted to 100%. Also, the concentration for half-maximal inhibition (IC50) in assay [5] was found to be 1300 nM. Moreover, the “Muscle relaxant effect duration” value in assay [6] was “higher than 2 hr”.

As to `CONC(=O)N1N=C(c2ccc(N)cc2)c2cc3c(cc2CC1C)OCO3` (racemic) [Example 3, (±)-5-(4-Aminophenyl)-7,8-dihydro-8-methyl--7-(N-methoxycarbamoyl)-9H-1,3-dioxolo/4,5-h//2,3/benzodiazepine], in assay [1], the “Effect in % (increase in gasping time)” value is 52% and the ID50 was 27 mg/kg. In assay [2], this compound returned an ED50 of 3.7 mg/kg. The “Percent inhibition” value in assay [3] is recorded as 95%. The compound also returned a 50% inhibitory concentration (IC50) in assay [5] of 1500 nM. In assay [6], the 50% effective dose (ED50) was 18.1 mg/kg and the “Muscle relaxant effect duration” value was found to be 4 h.

With `CC1Cc2cc3c(cc2C(c2ccc(N)cc2)=NN1C(=O)NN)OCO3` (racemic) [Example 4, (±)-5-(4-Aminophenyl)-7-(N-aminocarbamoyl)--7,8-dihydro-8-methyl-9H-1,3-dioxolo/4,5-h//2,3/benzodiazepine], the “Percent inhibition” value in assay [3] is listed as 95%.

In the case of `CC1=NN=C(c2ccc(N)cc2)c2cc3c(cc2C1)OCO3` [A, 8-Methyl-5--(4-aminophenyl)-9H-1,3-dioxolo/4,5-h//2,3/benzodiazepine, reference compound], in assay [1], the “Effect in % (increase in gasping time)” value turned out to be 55% and the ID50 is on record as 30 mg/kg. In assay [2], the ED50 came to 6.9 mg/kg. The “Percent inhibition” value in assay [3] was 58%. Besides, in assay [4] (setting [7]), the 50% effective dose (ED50) is 4.3 mg/kg. Further, the 50% effective dose (ED50) in assay [4] (setting [8]) was found to be 3.6 mg/kg. The compound further showed an IC50 in assay [5] of 9500 nM. In assay [6], the “muscle relaxant effect in the inclined screen” value was “all the treated animals showed muscle relaxation”, the ED50 was determined as 24.5 mg/kg and the “Muscle relaxant effect duration” value turned out to be 1 h. The muscle relaxant effect entry in assay [6] (at about 4.5 times higher dose than the anticonvulsive ED50 (6.9 mg/kg)) is “about 50%”.

`CC1=Cc2cc3c(cc2C(c2ccc(N)cc2)=NN1C(=O)NCCN1CCOCC1)OCO3` [Example 6, 5-(4-Aminopheayl)-8-methyl-7H-1,3-dioxolo/4,5-h//2,3/benzodiazepine-7-carboxylic acid-(2-morpholino-4-ylethyl)amide] showed an ED50 in assay [2] of roughly 10 mg/kg. The IC50 in assay [5] was 6500 nM. For the same compound, the “muscle relaxant effect in the inclined screen” value in assay [6] is reported as “no muscle relaxant effect”.

In the case of `CNC(=O)N1N=C(c2ccc(N)cc2)c2cc3c(cc2C=C1C)OCO3` [Example 11, 5-(4-Aminophenyl)-8-methyl-7-methylcarbamoyl-7H-1,3-dioxolo/4,5-h//2,3/benzodiazepine], half-maximal inhibition in assay [5] (IC50) required 2800 nM. That is a single-digit micromolar value.

(Values after patent EP1015457B1, “1,3-DIOXOLO/4,5-H//2,3/BENZODIAZEPINE DERIVATIVES AS AMPA/KAINATE RECEPTOR INHIBITORS” (EGIS GYOGYSZERGYAR RT., priority 1997, dated 1999).)
